By IC50 is commonly meant the concentration that inhibits the measured activity by half. Low values mean greater potency, high ones weaker potency.

The results in this text go back to patent US20260015358A1, “BICYCLIC DERIVATIVES, COMPOSITIONS AND USES THEREOF” (Danatlas Pharmaceuticals Co., Ltd., priority 2023, published 2026).

Experiment [1] addresses T1, WRN [UniPro: Q14191 (WRN_HUMAN), N500-C946] (Homo sapiens (Human), UniProt Q14191). The experiment is described as follows: WRN ATPase assay (ADP-Glo). It is filed as biochemical. Conditions: WRN enzymatic activity assay. (In general: ADP-Glo first removes unused ATP, then detects ADP through luciferase.)
In experiment [2] the target is T1, WRN [UniPro: Q14191 (WRN_HUMAN), N500-C946]. The experiment in a line: WRN unwinding assay (FORKF DNA, fluorescence). It is filed as biochemical. Conditions: Table 14.

T1 sequence (Q14191 500-946): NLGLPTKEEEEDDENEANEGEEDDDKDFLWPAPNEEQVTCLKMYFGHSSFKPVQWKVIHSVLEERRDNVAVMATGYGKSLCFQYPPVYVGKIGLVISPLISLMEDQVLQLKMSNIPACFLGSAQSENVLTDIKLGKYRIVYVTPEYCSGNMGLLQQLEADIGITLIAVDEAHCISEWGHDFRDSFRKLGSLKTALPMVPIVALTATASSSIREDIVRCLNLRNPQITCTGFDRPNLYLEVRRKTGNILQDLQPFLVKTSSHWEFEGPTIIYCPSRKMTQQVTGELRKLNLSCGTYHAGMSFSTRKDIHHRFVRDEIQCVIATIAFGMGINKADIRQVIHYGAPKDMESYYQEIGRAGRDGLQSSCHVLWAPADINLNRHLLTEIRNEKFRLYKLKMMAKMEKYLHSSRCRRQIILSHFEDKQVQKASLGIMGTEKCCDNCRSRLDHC

Regarding `CCc1c(N2CCN(C(=O)C(=O)Nc3nnc(Cl)s3)CC2)c(=O)n2nc(C3=CCOCC3)nc2n1CC(=O)Nc1ccc(C(F)(F)F)cc1Cl` [Example 351, N-(5-Chloro-1,3,4-thiadiazol-2-yl)-2-(4-(4-(2-((2-chloro-4-(trifluoromethyl)phenyl)amino)-2-oxoethyl)-2-(3,6-dihydro-2H-pyran-4-yl)-5-ethyl-7-oxo-4,7-dihydro-[1,2,4]triazolo[1,5-a]pyrimidin-6-yl)piperazin-1-yl)-2-oxoacetamide], the half-inhibitory concentration (IC50) in experiment [1] and in experiment [2] was < 100 nM in each case.

As to `CCc1c(N2CCN(C(=O)C(=O)Nc3cc(C)on3)CC2)c(=O)n2nc(N3CCOCC3)nc2n1CC(=O)Nc1ccc(C(F)(F)F)cc1Cl` [Example 352, 2-(4-(4-(2-((2-Chloro-4-(trifluoromethyl)phenyl)amino)-2-oxoethyl)-5-ethyl-2-morpholino-7-oxo-4,7-dihydro-[1,2,4]triazolo[1,5-a]pyrimidin-6-yl)piperazin-1-yl)-N-(5-methylisoxazol-3-yl)-2-oxoacetamide], the IC50 in experiment [1] and in experiment [2] was 100 to 1000 nM in each case.

On to `CCc1c(N2CCN(C(=O)C(=O)Nc3nc(C)co3)CC2)c(=O)n2nc(C3=CCOCC3)nc2n1CC(=O)Nc1ccc(C(F)(F)F)cc1Cl` [Example 353, 2-(4-(4-(2-((2-Chloro-4-(trifluoromethyl)phenyl)amino)-2-oxoethyl)-2-(3,6-dihydro-2H-pyran-4-yl)-5-ethyl-7-oxo-4,7-dihydro-[1,2,4]triazolo[1,5-a]pyrimidin-6-yl)piperazin-1-yl)-N-(4-methyloxazol-2-yl)-2-oxoacetamide], for which the IC50 in experiment [1] and in experiment [2] was < 100 nM in each case.

For the molecule `CCc1c(N2CCN(C(=O)C(=O)Nc3ccno3)CC2)c(=O)n2nc(C3=CCOCC3)nc2n1CC(=O)Nc1ccc(C(F)(F)F)cc1Cl` [Example 354, 2-(4-(4-(2-((2-Chloro-4-(trifluoromethyl)phenyl)amino)-2-oxoethyl)-2-(3,6-dihydro-2H-pyran-4-yl)-5-ethyl-7-oxo-4,7-dihydro-[1,2,4]triazolo[1,5-a]pyrimidin-6-yl)piperazin-1-yl)-N-(isoxazol-5-yl)-2-oxoacetamide], the IC50 in experiment [1] and in experiment [2] was < 100 nM throughout.

Regarding `CCc1c(N2CCN(C(=O)C(=O)Nc3nc(C)co3)CC2)c(=O)n2nc(C3=CCOCC3)nc2n1CC(=O)Nc1ccc(C(F)(F)F)cc1F` [Example 355, 2-(4-(2-(3,6-Dihydro-2H-pyran-4-yl)-5-ethyl-4-(2-((2-fluoro-4-(trifluoromethyl)phenyl)amino)-2-oxoethyl)-7-oxo-4,7-dihydro-[1,2,4]triazolo[1,5-a]pyrimidin-6-yl)piperazin-1-yl)-N-(4-methyloxazol-2-yl)-2-oxoacetamide], the IC50 in experiment [1] and in experiment [2] was < 100 nM throughout.

On to `CCc1c(N2CCN(C(=O)C(=O)N3CCOCC3)CC2)c(=O)n2nc(C3=CCOCC3)nc2n1CC(=O)Nc1ccc(C(F)(F)F)cc1Cl` [Example 356, N-(2-Chloro-4-(trifluoromethyl)phenyl)-2-(2-(3,6-dihydro-2H-pyran-4-yl)-5-ethyl-6-(4-(2-morpholino-2-oxoacetyl)piperazin-1-yl)-7-oxo-[1,2,4]triazolo[1,5-a]pyrimidin-4(7H)-yl)acetamide], for which the IC50 in experiment [1] and in experiment [2] was > 1000 nM in each case.

With `CCc1c(N2CCN(C(=O)C(=O)NC3CCCC3)CC2)c(=O)n2nc(C3=CCOCC3)nc2n1CC(=O)Nc1ccc(C(F)(F)F)cc1Cl` [Example 357, 2-(4-(4-(2-((2-Chloro-4-(trifluoromethyl)phenyl)amino)-2-oxoethyl)-2-(3,6-dihydro-2H-pyran-4-yl)-5-ethyl-7-oxo-4,7-dihydro-[1,2,4]triazolo[1,5-a]pyrimidin-6-yl)piperazin-1-yl)-N-cyclopentyl-2-oxoacetamide], the IC50 in experiment [1] and in experiment [2] was 100 to 1000 nM throughout.

For `CCc1c(N2CCN(C(=O)C(=O)N3CCCC3)CC2)c(=O)n2nc(C3=CCOCC3)nc2n1CC(=O)Nc1ccc(C(F)(F)F)cc1Cl` [Example 358, N-(2-Chloro-4-(trifluoromethyl)phenyl)-2-(2-(3,6-dihydro-2H-pyran-4-yl)-5-ethyl-7-oxo-6-(4-(2-oxo-2-(pyrrolidin-1-yl)acetyl)piperazin-1-yl)-[1,2,4]triazolo[1,5-a]pyrimidin-4(7H)-yl)acetamide], the IC50 in experiment [1] and in experiment [2] was 100 to 1000 nM throughout.

For the molecule `CCc1c(N2CCN(C(=O)C(=O)NC3CC3)CC2)c(=O)n2nc(C3=CCOCC3)nc2n1CC(=O)Nc1ccc(C(F)(F)F)cc1Cl` [Example 359, 2-(4-(4-(2-((2-Chloro-4-(trifluoromethyl)phenyl)amino)-2-oxoethyl)-2-(3,6-dihydro-2H-pyran-4-yl)-5-ethyl-7-oxo-4,7-dihydro-[1,2,4]triazolo[1,5-a]pyrimidin-6-yl)piperazin-1-yl)-N-cyclopropyl-2-oxoacetamide], the IC50 in experiment [1] and in experiment [2] was 100 to 1000 nM in each case.

In the case of `CCc1c(N2CCN(C(=O)C(=O)NCC(F)(F)F)CC2)c(=O)n2nc(C3=CCOCC3)nc2n1CC(=O)Nc1ccc(C(F)(F)F)cc1Cl` [Example 360, 2-(4-(4-(2-((2-Chloro-4-(trifluoromethyl)phenyl)amino)-2-oxoethyl)-2-(3,6-dihydro-2H-pyran-4-yl)-5-ethyl-7-oxo-4,7-dihydro-[1,2,4]triazolo[1,5-a]pyrimidin-6-yl)piperazin-1-yl)-2-oxo-N-(2,2,2-trifluoroethyl)acetamide], the IC50 in experiment [1] and in experiment [2] was > 1000 nM in each case.

With `CCc1c(N2CCN(C(=O)CNC(=O)c3nc(NC)ccc3F)CC2)c(=O)n2nc(C3=CCOCC3)nc2n1CC(=O)Nc1ccc(C(F)(F)F)cc1Cl` [Example 361, N-(2-(4-(4-(2-((2-Chloro-4-(trifluoromethyl)phenyl)amino)-2-oxoethyl)-2-(3,6-dihydro-2H-pyran-4-yl)-5-ethyl-7-oxo-4,7-dihydro-[1,2,4]triazolo[1,5-a]pyrimidin-6-yl)piperazin-1-yl)-2-oxoethyl)-3-fluoro-6-(methylamino) picolinamide], the concentration for half-maximal inhibition (IC50) in experiment [1] and in experiment [2] was < 100 nM each time.

In the case of `CCc1c(N2CCN(C(=O)CNc3ncnc4cccnc34)CC2)c(=O)n2nc(C3=CCOCC3)nc2n1CC(=O)Nc1ccc(C(F)(F)F)cc1Cl` [Example 362, N-(2-Chloro-4-(trifluoromethyl)phenyl)-2-(2-(3,6-dihydro-2H-pyran-4-yl)-5-ethyl-7-oxo-6-(4-(pyrido[3,2-d]pyrimidin-4-ylglycyl)piperazin-1-yl)-[1,2,4]triazolo[1,5-a]pyrimidin-4(7H)-yl)acetamide], the results for the half-inhibitory concentration (IC50) in experiment [1] and in experiment [2] were 100 to 1000 nM and < 100 nM, respectively.

For the molecule `CCc1c(N2CCN(C(=O)CNc3ncnc4[nH]ccc34)CC2)c(=O)n2nc(C3=CCOCC3)nc2n1CC(=O)Nc1ccc(C(F)(F)F)cc1Cl` [Example 363, 2-(6-(4-((7H-Pyrrolo[2,3-d]pyrimidin-4-yl)glycyl)piperazin-1-yl)-2-(3,6-dihydro-2H-pyran-4-yl)-5-ethyl-7-oxo-[1,2,4]triazolo[1,5-a]pyrimidin-4(7H)-yl)-N-(2-chloro-4-(trifluoromethyl)phenyl)acetamide], the half-inhibitory concentration (IC50) in experiment [1] and in experiment [2] was > 1000 nM in each case.

In the case of `CCc1c(N2CCN(C(=O)CNC(=O)c3ncncc3O)CC2)c(=O)n2nc(C3=CCOCC3)nc2n1CC(=O)Nc1ccc(C(F)(F)F)cc1Cl` [Example 364, N-(2-(4-(4-(2-((2-Chloro-4-(trifluoromethyl)phenyl)amino)-2-oxoethyl)-2-(3,6-dihydro-2H-pyran-4-yl)-5-ethyl-7-oxo-4,7-dihydro-[1,2,4]triazolo[1,5-a]pyrimidin-6-yl)piperazin-1-yl)-2-oxoethyl)-5-hydroxypyrimidine-4-carboxamide], the half-inhibitory concentration (IC50) in experiment [1] and in experiment [2] was < 100 nM each time.

Consider `CCc1c(N2CCN(C(=O)CNC(=O)c3[nH]c(=O)ccc3F)CC2)c(=O)n2nc(C3=CCOCC3)nc2n1CC(=O)Nc1ccc(C(F)(F)F)cc1Cl` [Example 365, N-(2-(4-(4-(2-((2-Chloro-4-(trifluoromethyl)phenyl)amino)-2-oxoethyl)-2-(3,6-dihydro-2H-pyran-4-yl)-5-ethyl-7-oxo-4,7-dihydro-[1,2,4]triazolo[1,5-a]pyrimidin-6-yl)piperazin-1-yl)-2-oxoethyl)-3-fluoro-6-oxo-1,6-dihydropyridine-2-carboxamide], for which the IC50 in experiment [1] is 100 to 1000 nM; in experiment [2] it was < 100 nM.

Turning to `CCc1c(N2CCN(C(=O)CNC(=O)c3cccc(=O)[nH]3)CC2)c(=O)n2nc(C3=CCOCC3)nc2n1CC(=O)Nc1ccc(C(F)(F)F)cc1Cl` [Example 366, N-(2-(4-(4-(2-((2-Chloro-4-(trifluoromethyl)phenyl)amino)-2-oxoethyl)-2-(3,6-dihydro-2H-pyran-4-yl)-5-ethyl-7-oxo-4,7-dihydro-[1,2,4]triazolo[1,5-a]pyrimidin-6-yl)piperazin-1-yl)-2-oxoethyl)-6-oxo-1,6-dihydropyridine-2-carboxamide], the half-inhibitory concentration (IC50) in experiment [1] and in experiment [2] was < 100 nM each time.

Consider `CCc1c(N2CCN(C(=O)CNC(=O)c3nc(N)ccc3F)CC2)c(=O)n2nc(C3=CCOCC3)nc2n1CC(=O)Nc1ccc(C(F)(F)F)cc1Cl` [Example 367, 6-Amino-N-(2-(4-(4-(2-((2-chloro-4-(trifluoromethyl)phenyl)amino)-2-oxoethyl)-2-(3,6-dihydro-2H-pyran-4-yl)-5-ethyl-7-oxo-4,7-dihydro-[1,2,4]triazolo[1,5-a]pyrimidin-6-yl)piperazin-1-yl)-2-oxoethyl)-3-fluoropicolinamide], for which the half-maximal inhibitory concentration (IC50) in experiment [1] and in experiment [2] was < 100 nM in each case.

Take `CCc1c(N2CCN(C(=O)CNC(=O)c3nc(C)ncc3O)CC2)c(=O)n2nc(C3=CCOCC3)nc2n1CC(=O)Nc1ccc(C(F)(F)F)cc1Cl` [Example 368, N-(2-(4-(4-(2-((2-Chloro-4-(trifluoromethyl)phenyl)amino)-2-oxoethyl)-2-(3,6-dihydro-2H-pyran-4-yl)-5-ethyl-7-oxo-4,7-dihydro-[1,2,4]triazolo[1,5-a]pyrimidin-6-yl)piperazin-1-yl)-2-oxoethyl)-5-hydroxy-2-methylpyrimidine-4-carboxamide]: the IC50 in experiment [1] and in experiment [2] was < 100 nM in each case.
